From patent US5501976A, “Methods and compositions for the control of the flesh fly” (The University of Florida, priority 1995, dated 1996)
Where “and” joins values, the source holds several entries; their conditions need not be identical. Equal values may be shown once. Read-outs that look alike come from different tables or passages of the source. Where no end group is shown, it is not given here.

Columns and labels:
[1] = tested on: vitellogenin biosynthesis; assay: Vitellogenin in hemolymph of injected females (SDS-PAGE); format: in vivo, Neobellieria
Description: Electrophoresis and fluorography. ^3 H!DIP-trypsin-like derivatives of 0.04 gut equivalent and 20 μl sample buffer were run by electrophoresis on 12.5% polyacrylamide gel for 1 hour at 20 mA and for 3 hours at 30 mA (Biorad protean 32 CM) (Laemmli, 1970; Borovsky and Schlein, 1988). Gels were stained for 20 minutes with Coomassie Brilliant Blue R250 and destained overnight with methanol/H2 O/acetic acid (40/50/10), and washed 2 times for 30 minutes in 100 ml dimethylsulfoxide (DMSO). Gels were then incubated for 2 h in 200 ml DMSO containing 44 g 2,5-diphenyloxazole (PPO) (Janssen Chimica, Belgium), rinsed with distilled water for 1 hour, dried for 2 hours in a Biorad slab gel dryer at 80° C. and exposed to a Hyperfilm-MP (Amersham) for 2 days at -70° C. Vitellogenin was separated on a 5-15% SDS gradient gel (Huybrechts and De Loof 1977).
Four-day-old females were injected with synthetic Neb-TMOF at final concentration of 10^-9 M. Twenty-four hours later, hemolymph was collected and subjected to PAGE. […] The three yolk polypeptides of vitellogenin were affected (FIG. 7). The decrease in vitellogenin in the hemolymph is probably due to the inhibition of trypsin biosynthesis and decrease in protein digestion in the gut. The Neb-TMOF can also affect the fat body, which is the major site of yolk polypeptide biosynthesis in Neobellieria.

[2] = tested on: ecdysone biosynthesis by ring glands; assay: In vitro ecdysone biosynthesis by larval ring glands; format: cell-based, Calliphora and Neobellieria
[3] = tested on: trypsin biosynthesis in the midgut of female Neobellieria bullata; assay: Effect of injected peptide on trypsin biosynthesis in the gut ([3H]DFP assay); format: in vivo
ecdysteroid titer = assay: In vivo ecdysteroid titer in larvae; conditions: ten picomole per larva, within 18 hours
trypsin-like enzymes = assay: Gut supernatant incubated with Neb-TMOF: conversion of [3H]DFP to [3H]DIP-trypsin derivatives; format: biochemical, Neobellieria; conditions: gut supernatant incubated 18 hours at 4° C. with Neb-TMOF (FIG. 6)

## NPTNLH [Neb-TMOF, NH2 -Asn-Pro-Thr-Asn-Leu-His-COOH]
[1]; 10^-9 M injected, 24 hours later, PAGE
  vitellogenin level in hemolymph compared with non-injected controls: low level of vitellogenin
[1]; injection of the hormone
  egg yolk synthesis after injection: inhibited egg yolk synthesis
[2]
  PTIH effect, onset and reversibility: immediate and reversible
[2]; 10^-7 M
  ecdysone biosynthesis inhibited: More than 98%
[2]; ring glands of Neobellieria and Calliphora, read-out: EC50 of the biosynthesis of ecdysone by ring glands
  EC50: 5 nM
[2]; ring glands of larvae of Calliphora and Neobellieria, read-out: EC50 of in vitro ecdysone biosynthesis by ring glands
  EC50: 5 nM
[3]; 10^-8 M, injected 4-day-old females
  inhibition of trypsin biosynthesis: 35%
[3]; 10^-9 M injected, liver meal, guts removed 6 h later (FIG. 6)
  reduction in trypsin-like enzymes as compared with controls: 51%
[3]; 10^-9 M, injected females
  inhibition of trypsin biosynthesis: 60% and 50%
[3]; 10^-11 M
  inhibition of trypsin biosynthesis: No inhibition
[3]; column purification step 1, 1.25 ovary equivalents, P<0.05
  inhibition of trypsin biosynthesis: 44%
[3]; column purification step 2, 3.7 ovary equivalents, P<0.05
  inhibition of trypsin biosynthesis: 38%
[3]; column purification step 3, 10 ovary equivalents, P<0.05
  inhibition of trypsin biosynthesis: 43%
[3]; column purification step 4, 10 ovary equivalents, P<0.05
  inhibition of trypsin biosynthesis: 44%
[3]; column purification step 5, 38.5 ovary equivalents, P<0.05
  inhibition of trypsin biosynthesis: 20%
[3]; in vivo, 10^-8 M and 10^-9 M, P<0.05
  inhibition of trypsin biosynthesis in the gut, significance (FIG. 5): Significant inhibition
[3]; physiological concentrations
  effective dose of 50% inhibition (ED50) of trypsin biosynthesis: 10^-9 M
[3]; versus mosquito TMOF
  activity in Neobellieria relative to mosquito TMOF: six fold more active
Ecdysteroid titer
  reduction of ecdysteroid titer in vivo: up to a factor of four
trypsin-like enzymes
  reduction in [3H]DIP-trypsin derivatives compared with controls: No reduction

## CSCC[C@H](NC(=O)[C@H](Cc1ccccc1)NC(=O)CNC(=O)CNC(=O)[C@@H](N)Cc1ccc(O)cc1)C(=O)O [methionine-enkephalin, H-YGGFM-OH, reference compound]
[3]; injected with 10^-7 M, control group
  effect on trypsin-like activity: without an effect
